Source: US6150351A, “Cephem compounds and pharmaceutical use thereof” (Fujisawa Pharmaceutical Co., Ltd., priority 1996, dated 2000)

Tests used:
in vivo = test: in vivo; set-up: species or system male rats; conditions: rat, po
Experimental: The test compound suspended in 0.5% methylcellulose was orally administered to male rats at a dose of 100 or 32 mg/kg/day for 2 weeks.

H. pylori FP 1757 [1] = test: In vitro anti-microbial activity against Helicobacter pylori (two-fold agar plate dilution method); format: cell-based; conditions: FP1757, 72 h, test strain H. pylori FP 1757, Brucella agar with 7% horse blood, 37° C., 3 days, 10% CO2
H. pylori FP 1757 [2] = test: Therapeutic effects in mouse model (H. pylori infection, eradication); format: in vivo, male ICR mice; conditions: 0.32 mg/kg/time, oral, twice per day for 4 days; mice sacrificed 2 weeks after final administration
Experimental: 1.5 ml of approx. 10^8 cfu/ml of H. pylori FP 1757 was orally infected into 4 weeks old male ICR mice (Nippon SLC, Hamamatsu, Japan) which had been fasted overnight. […] The test compound was suspended in 0.5% methylcellulose and administered to the mice. The mice were sacrificed at 2 weeks after the final administration and the gastric mucosa was scraped and homogenized in 1 ml of 0.1 M phosphate buffered saline. 0.1 ml aliquots were inoculated onto Brucella agar plate containing 3% horse serum, 2% starch and antibiotics. All plates were incubated at 37° C. under 10% CO2 for 4 or 5 days. Colonies grown on the plate were counted, and the therapeutic effect was evaluated.

NC(=O)Cc1csc(SC2=C(C(=O)O)N3C(=O)[C@@H](NC(=O)Cc4ccccc4)[C@H]3SC2)n1 [Example 14, 7β-(2-Phenylacetamido)-3-(4-carbamoylmethylthiazol-2-yl)thio-3-cephem-4-carboxylic acid]
NOAEL at 336 h (in vivo): 100 mg/kg/day

NCc1nnc(SC2=C(C(=O)O)N3C(=O)[C@@H](NC(=O)Cc4ccccc4)[C@H]3SC2)s1.O=C(O)C(F)(F)F [Example 24, 7β-(2-phenylacetamido)-3-(5-aminomethyl-1,3,4-thiadiazol-2-yl)thio-3-cephem-4-carboxylic acid trifluoroacetic acid salt]
MIC (H. pylori FP 1757 [1]): < 0.02 µg/mL

O=C(O)Cc1csc(SC2=C(C(=O)O)N3C(=O)[C@@H](NC(=O)Cc4cccs4)[C@H]3SC2)n1 [Example 72, 7β-[2-(2-Thienyl)acetamido]-3-(4-carboxymethylthiazol-2-yl)thio-3-cephem-4-carboxylic acid]
eradication (H. pylori FP 1757 [2]): > 80%
